The values that follow come from patent US20160083776A1, “Methods for Measuring Polymerase Activity Useful for Sensitive, Quantitative Measurements of Any Polymerase Extension Activity and for Determining the Presence of Viable Cells” (Zeus Scientific, Inc., priority 2012, published 2016).

Common to all, as to assay type: biochemical
The test system of test [1] is S. aureus DNA polymerase extension activity. Description: Bead lysis-coupled DPE-PCR, ddCTP substitution, S. aureus lysate. The following applies: 50 μM ddCTP substituted for dCTP, compared to standard reaction mix; crude bead mill lysate. The procedure:
(§1) FIG. 5 illustrates that detection of bacteria by DPE-PCR is blocked by ddCTP. 5 μL of E. coli suspension were added to bead lysis-coupled DNA polymerase assays comprised of a dNTP mix containing either 50 μM dCTP or 50 μM ddCTP. DPE-PCR curves representing E. coli-derived DNA polymerase activity is presented. Plots were generated using the average qPCR Ct values from triplicate reactions at the indicated conditions. ddCTP termination and dCTP rescue experiments were performed for S. aureus exactly as described above for E. coli.
(§2) S. aureus and E. coli cultures were grown to an OD600 of 1.0±0.2 (approximately 1×10^9 cfu/mL.) For each organism, 1 mL of culture was pelleted and washed three times in T.E. Bacterial suspensions were serially diluted in T.E., and 5 μL of each stock were added to bead mill lysis tubes containing 50 μL DNA polymerase extension reaction mixture (see above for composition). A titration curve of 1×10^5 to […] cfu/reaction was performed in triplicate for each organism, including triplicate reactions without bacterial suspension.
(§3) After the addition of 5 μL bacterial stock, reaction tubes were bead milled for 6 min. at 2800 rpm using a digital Vortex Genie equipped with a disrupter head (Scientific Industries). Immediately after disruption, sample tubes were placed at 37° C. for 20 minutes. […]

The subject of test [2] is E. coli-derived DNA polymerase activity. Briefly: Bead lysis-coupled DPE-PCR, ddCTP substitution, E. coli lysate. The following applies: 50 μM ddCTP substituted for dCTP, compared to standard reaction mix; crude bead mill lysate. Here is the method: as §1, §2, §3
Test [3] addresses T1, DNA polymerase I (Escherichia coli, UniProt P00582).
T1 construct: purchased New England Biolabs MO209
Description: DPE-PCR assay, ddCTP termination of purified DNA polymerase extension activity. As to conditions: 50 μM ddCTP substituted for dCTP in the extension reaction mix; 37° C., 20 minutes. Here is the method:
DNA Pol I (NEB cat# MO209L), Klenow (NEB cat# MO210S) and Klenow exo(−) (NEB cat# MO212S) were diluted to the indicated U/μL stock in sterile T.E. pH 8.0. To begin, 2 μL of DNA polymerase stock at each concentration were placed into a 50 μL DNA polymerase extension reaction mixture containing the following components: 50 μM dNTP, 20 mM Tris pH 8.0, 10 mM Ammonium sulfate, 10 mM Potassium chloride, 2 mM Magnesium sulfate, 1% BSA, 0.1% Triton X-100, 0.1% Tween 20, and 0.001 μM pre-annealed DNA substrate (described above. Two micro-liters of T.E. (without DNA polymerase) was routinely added to an additional tube containing complete DNA polymerase extension reaction mixture and is referred to as a “No Input Control” (NIC). Reactions containing DNA polymerase (or No Input Controls) were vortexed briefly and placed at 37° C. for 20 minutes. After 20 minutes, 3 μL of each reactions containing purified DNA polymerase were immediately placed into a qPCR reaction (see below for qPCR conditions).
DNA polymerase extension reactions were prepared as described above with a 50 μM [dATP, dGTP, dTTP] mixture supplemented with either 50 μM dCTP or 50 μM ddCTP (Affymetrix #77332.) 50 μL DNA polymerase extension reactions with a 50 μM [dATP, dGTP, dTTP] mixture, supplemented with either dCTP or ddCTP, were spiked with 2 μL of a 1×10^−9 U/μL stock of DNA polymerase I (New England Biolabs # MO209). […]

T1 sequence (P00582 whole entry): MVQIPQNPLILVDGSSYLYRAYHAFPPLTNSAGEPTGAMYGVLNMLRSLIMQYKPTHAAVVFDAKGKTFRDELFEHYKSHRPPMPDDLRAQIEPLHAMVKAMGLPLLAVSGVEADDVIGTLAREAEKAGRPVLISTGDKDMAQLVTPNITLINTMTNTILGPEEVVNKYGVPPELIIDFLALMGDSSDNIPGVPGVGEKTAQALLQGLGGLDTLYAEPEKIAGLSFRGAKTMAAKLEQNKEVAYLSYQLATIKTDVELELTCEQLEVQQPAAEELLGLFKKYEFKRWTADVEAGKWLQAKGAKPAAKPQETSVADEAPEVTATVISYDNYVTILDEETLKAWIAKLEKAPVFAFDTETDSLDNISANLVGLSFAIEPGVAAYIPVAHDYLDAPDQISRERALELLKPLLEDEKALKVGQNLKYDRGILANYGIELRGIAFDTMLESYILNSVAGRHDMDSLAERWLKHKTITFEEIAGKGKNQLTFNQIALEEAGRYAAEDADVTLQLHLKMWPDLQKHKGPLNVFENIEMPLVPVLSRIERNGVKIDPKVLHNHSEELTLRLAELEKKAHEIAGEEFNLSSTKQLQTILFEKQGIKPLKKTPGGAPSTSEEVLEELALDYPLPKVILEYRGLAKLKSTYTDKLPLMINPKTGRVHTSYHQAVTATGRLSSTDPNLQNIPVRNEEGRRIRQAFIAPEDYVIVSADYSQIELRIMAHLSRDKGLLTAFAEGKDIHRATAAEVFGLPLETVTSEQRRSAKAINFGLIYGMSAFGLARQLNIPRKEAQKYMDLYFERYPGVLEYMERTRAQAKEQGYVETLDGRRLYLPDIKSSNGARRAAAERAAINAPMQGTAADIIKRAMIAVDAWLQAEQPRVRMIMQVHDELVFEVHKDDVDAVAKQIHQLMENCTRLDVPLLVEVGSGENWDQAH

For the compound `Nc1ccn([C@H]2CC[C@@H](COP(=O)(O)OP(=O)(O)OP(=O)(O)O)O2)c(=O)n1` [ddCTP, 2′,3′-Dideoxycytidine-5′-Triphosphate], the “DPE-PCR signal derived from S. aureus cfu spikes” value in test [1] is “blocked the generation of signal”. Moreover, the “DPE-PCR signal derived from E. coli cfu spikes” value in test [2] is “blocked the generation of signal”. In addition, the “DPE-PCR assay signal generated by DNA polymerase I” value in test [3] is “eliminates signal”.
